PubChem BioAssay (NCI)
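Method: 48-hour compound exposure of cells in 96-well plates, five concentrations, linear interpolation of endpoints. The concentration for 50% growth inhibition is given as GI50. TGI marks complete inhibition of growth.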

How the values were obtained:
Assay in all cases: inhibition of tumour cell growth, NCI panel, 48 h
[1] = tested on: COLO 205 colon
[2] = tested on: DU-145 prostate
[3] = tested on: M14 melanoma
[4] = tested on: NCI-H23 lung
[5] = tested on: OVCAR-3 ovarian
[6] = tested on: OVCAR-8 ovarian
[7] = tested on: RPMI-8226 leukemia
[8] = tested on: SK-MEL-2 melanoma
[9] = tested on: SN12C renal
[10] = tested on: SNB-75 CNS

O=C1C(Cl)=C(N2CCOCC2)C(=O)c2ccccc21
GI50 [1]: 14.2 µM | TGI [1]: 27.8 µM | GI50 [2]: 17.7 µM | TGI [2]: 31.9 µM | GI50 [3]: 5.62 µM | TGI [3]: 18.7 µM | GI50 [4]: 3.32 µM | TGI [4]: 20.9 µM | GI50 [5]: 2.04 µM | TGI [5]: 3.58 µM | GI50 [6]: 1.6 µM | TGI [6]: 3 µM | GI50 [7]: 2.63 µM | TGI [7]: 7.87 µM | GI50 [8]: 3.82 µM | TGI [8]: 11.6 µM | GI50 [9]: 10.7 µM | TGI [9]: 23.1 µM | GI50 [10]: 14.2 µM | TGI [10]: 27.8 µM

Cc1cc(S(=O)(=O)NC#N)c(S/C(=N\Nc2ccc([N+](=O)[O-])cc2)c2ccccc2)cc1Cl
GI50 [1]: 44.7 µM | TGI [1]: > 100 µM | GI50 [2]: 11.7 µM | TGI [2]: 24 µM | GI50 [3]: 18.1 µM | TGI [3]: 37.3 µM | GI50 [4]: 15.4 µM | TGI [4]: 28.8 µM | GI50 [5]: 14.2 µM | TGI [5]: 30.5 µM | GI50 [6]: 16.8 µM | TGI [6]: 42.8 µM | GI50 [7]: 19.5 µM | TGI [7]: 61.8 µM | GI50 [8]: 13.8 µM | TGI [8]: 34 µM | GI50 [9]: 20.9 µM | TGI [9]: 52.3 µM | GI50 [10]: 20.4 µM | TGI [10]: > 100 µM

Cn1c(=O)c2[nH]c(COCc3nc4c([nH]3)c(=O)n(C)c(=O)n4C)nc2n(C)c1=O
TGI [1]: > 100 µM | TGI [2]: > 100 µM | TGI [3]: > 100 µM | TGI [4]: > 100 µM | TGI [5]: > 100 µM | TGI [6]: > 100 µM | TGI [7]: > 100 µM | TGI [8]: > 100 µM | TGI [9]: > 100 µM | TGI [10]: > 100 µM
